Assay results as given in ChEMBL document CHEMBL5465560, “Selectivity Literature for EUbOPEN Chemogenomic Library” (2024).

What was measured:
[1] = molecular target: T1, Interleukin-1 receptor-associated kinase 4 (Homo sapiens) (UniProt Q9NWZ3); assay: Selectivity interaction (KinomeScan (DiscoverX)) EUB0000666a IRAK4; details: at 10 µM
T1 sequence (whole entry): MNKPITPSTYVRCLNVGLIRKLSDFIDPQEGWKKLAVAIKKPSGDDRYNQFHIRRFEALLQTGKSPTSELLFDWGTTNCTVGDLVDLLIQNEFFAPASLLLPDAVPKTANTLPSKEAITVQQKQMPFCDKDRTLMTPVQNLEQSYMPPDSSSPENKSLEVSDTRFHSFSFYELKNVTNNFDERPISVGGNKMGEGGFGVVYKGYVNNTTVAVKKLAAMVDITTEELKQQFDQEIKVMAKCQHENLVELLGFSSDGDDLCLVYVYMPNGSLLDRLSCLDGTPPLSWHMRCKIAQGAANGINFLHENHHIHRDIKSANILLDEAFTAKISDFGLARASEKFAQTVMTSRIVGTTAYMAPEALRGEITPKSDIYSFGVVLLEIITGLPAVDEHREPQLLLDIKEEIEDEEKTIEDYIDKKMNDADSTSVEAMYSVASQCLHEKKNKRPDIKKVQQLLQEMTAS

[2] = molecular target: Mitogen-activated protein kinase kinase kinase kinase 5 (Homo sapiens) (UniProt Q9Y4K4); details: at 10 µM
Chain of Mitogen-activated protein kinase kinase kinase kinase 5 (Homo sapiens) (Q9Y4K4 whole entry, looked up): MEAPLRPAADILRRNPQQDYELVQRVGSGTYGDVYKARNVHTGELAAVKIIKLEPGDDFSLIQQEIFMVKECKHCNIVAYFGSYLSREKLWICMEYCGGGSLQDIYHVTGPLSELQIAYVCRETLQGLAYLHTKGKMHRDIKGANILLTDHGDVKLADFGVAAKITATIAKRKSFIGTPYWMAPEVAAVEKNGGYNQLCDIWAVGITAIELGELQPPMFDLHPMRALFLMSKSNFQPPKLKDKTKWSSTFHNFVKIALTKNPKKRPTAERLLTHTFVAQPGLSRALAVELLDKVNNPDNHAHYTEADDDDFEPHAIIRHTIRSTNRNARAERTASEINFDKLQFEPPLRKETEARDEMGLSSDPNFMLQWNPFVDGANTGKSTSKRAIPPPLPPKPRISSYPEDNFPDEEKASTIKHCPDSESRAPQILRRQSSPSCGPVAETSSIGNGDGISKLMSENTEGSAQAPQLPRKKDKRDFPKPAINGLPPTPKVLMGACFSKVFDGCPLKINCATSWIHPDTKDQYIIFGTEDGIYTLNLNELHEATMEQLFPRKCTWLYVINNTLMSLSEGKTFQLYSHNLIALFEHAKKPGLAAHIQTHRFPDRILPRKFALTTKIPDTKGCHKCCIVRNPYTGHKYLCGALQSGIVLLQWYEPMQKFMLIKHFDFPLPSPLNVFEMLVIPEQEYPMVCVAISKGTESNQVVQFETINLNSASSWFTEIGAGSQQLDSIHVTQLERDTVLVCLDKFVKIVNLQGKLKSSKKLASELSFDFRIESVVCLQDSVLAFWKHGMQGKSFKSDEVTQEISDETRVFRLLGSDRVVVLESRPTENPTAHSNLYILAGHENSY

[3] = molecular target: Serine/threonine-protein kinase PAK 2 (Homo sapiens) (UniProt Q13177); details: at 10 µM
Chain of Serine/threonine-protein kinase PAK 2 (Homo sapiens) (Q13177 whole entry): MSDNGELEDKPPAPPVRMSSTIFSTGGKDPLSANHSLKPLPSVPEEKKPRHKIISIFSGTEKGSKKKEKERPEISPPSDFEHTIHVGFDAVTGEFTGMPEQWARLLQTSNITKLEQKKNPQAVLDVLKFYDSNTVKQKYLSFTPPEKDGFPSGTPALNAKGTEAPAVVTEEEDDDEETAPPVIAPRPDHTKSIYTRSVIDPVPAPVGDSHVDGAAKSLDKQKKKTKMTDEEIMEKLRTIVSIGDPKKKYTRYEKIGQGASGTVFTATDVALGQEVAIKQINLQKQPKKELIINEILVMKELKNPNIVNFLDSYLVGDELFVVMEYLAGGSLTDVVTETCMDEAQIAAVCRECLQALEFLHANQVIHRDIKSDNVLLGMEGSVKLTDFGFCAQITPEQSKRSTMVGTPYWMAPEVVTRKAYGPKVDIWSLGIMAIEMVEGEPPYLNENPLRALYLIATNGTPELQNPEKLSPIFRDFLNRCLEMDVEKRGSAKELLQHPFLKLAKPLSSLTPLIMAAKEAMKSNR

[4] = molecular target: Interferon-induced, double-stranded RNA-activated protein kinase (Homo sapiens) (UniProt P19525); assay: Selectivity interaction (KinomeScan (DiscoverX)) EUB0001049a EIF2AK2; details: at 1 µM
Chain of Interferon-induced, double-stranded RNA-activated protein kinase (Homo sapiens) (P19525 whole entry): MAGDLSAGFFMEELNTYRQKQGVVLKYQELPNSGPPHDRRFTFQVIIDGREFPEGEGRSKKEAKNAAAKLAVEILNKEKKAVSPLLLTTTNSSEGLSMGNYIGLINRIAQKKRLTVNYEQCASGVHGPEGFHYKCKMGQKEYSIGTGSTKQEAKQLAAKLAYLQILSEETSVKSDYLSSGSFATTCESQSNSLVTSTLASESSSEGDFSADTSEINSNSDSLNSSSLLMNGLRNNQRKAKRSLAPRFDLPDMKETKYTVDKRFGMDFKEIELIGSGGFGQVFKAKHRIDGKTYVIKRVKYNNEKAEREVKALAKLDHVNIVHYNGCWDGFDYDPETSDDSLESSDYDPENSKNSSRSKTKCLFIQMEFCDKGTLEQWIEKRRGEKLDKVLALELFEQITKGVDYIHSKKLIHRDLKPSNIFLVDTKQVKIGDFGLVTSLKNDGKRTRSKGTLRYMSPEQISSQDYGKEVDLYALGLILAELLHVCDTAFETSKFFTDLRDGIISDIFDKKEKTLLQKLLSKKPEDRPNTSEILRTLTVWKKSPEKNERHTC

[5] = molecular target: Calcium/calmodulin-dependent protein kinase kinase 2 (Homo sapiens) (UniProt Q96RR4); assay: Selectivity interaction (ActivX KiNativ screen (ex vivo kinase selectivity in human PBMCs)) EUB0001619a CAMKK2; format: cell-based; details: PBMC, at 1 µM
Chain of Calcium/calmodulin-dependent protein kinase kinase 2 (Homo sapiens) (Q96RR4 2-588 limits assumed): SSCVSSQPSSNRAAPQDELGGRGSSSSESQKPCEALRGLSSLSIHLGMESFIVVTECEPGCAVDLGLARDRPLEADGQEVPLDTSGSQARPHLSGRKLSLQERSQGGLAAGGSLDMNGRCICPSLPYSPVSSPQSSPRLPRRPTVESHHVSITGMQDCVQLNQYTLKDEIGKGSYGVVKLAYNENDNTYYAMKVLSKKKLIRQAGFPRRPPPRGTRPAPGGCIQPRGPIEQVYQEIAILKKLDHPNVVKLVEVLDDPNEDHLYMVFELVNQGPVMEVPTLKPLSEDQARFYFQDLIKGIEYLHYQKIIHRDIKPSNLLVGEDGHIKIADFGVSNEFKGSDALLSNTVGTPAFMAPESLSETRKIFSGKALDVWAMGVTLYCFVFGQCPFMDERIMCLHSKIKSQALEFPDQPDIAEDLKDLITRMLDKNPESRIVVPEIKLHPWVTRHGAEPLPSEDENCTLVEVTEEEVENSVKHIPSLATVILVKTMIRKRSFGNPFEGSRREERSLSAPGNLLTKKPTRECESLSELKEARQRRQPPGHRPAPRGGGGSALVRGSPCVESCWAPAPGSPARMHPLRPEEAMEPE

[6] = molecular target: T2, Serine/threonine-protein kinase NLK (Homo sapiens) (UniProt Q9UBE8); assay: Selectivity interaction (KinomeScan (DiscoverX)) EUB0000618a NLK; details: at 10 µM
T2 sequence (whole entry): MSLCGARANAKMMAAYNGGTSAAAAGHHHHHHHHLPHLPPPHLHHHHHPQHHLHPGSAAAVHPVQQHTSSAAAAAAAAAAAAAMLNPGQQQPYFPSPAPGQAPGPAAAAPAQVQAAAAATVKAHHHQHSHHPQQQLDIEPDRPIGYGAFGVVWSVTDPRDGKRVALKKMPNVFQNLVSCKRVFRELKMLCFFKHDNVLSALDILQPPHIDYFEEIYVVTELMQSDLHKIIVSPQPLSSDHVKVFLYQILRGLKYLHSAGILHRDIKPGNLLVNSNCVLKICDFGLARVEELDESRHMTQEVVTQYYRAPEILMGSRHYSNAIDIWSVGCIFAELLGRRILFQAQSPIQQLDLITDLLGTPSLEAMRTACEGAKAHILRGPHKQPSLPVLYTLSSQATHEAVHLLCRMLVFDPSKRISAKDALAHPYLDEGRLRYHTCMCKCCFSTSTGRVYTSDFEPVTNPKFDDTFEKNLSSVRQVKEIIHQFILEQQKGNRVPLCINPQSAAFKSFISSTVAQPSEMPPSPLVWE

[7] = molecular target: Ribosomal protein S6 kinase alpha-1 (Homo sapiens, UniProt Q15418); assay: Selectivity interaction (ActivX KiNativ screen (kinase selectivity in THP-1 cell lysates)) EUB0000639a RPS6KA1; format: subcellular; details: lysate, at 5 µM
Chain of Ribosomal protein S6 kinase alpha-1 (Q15418 whole entry): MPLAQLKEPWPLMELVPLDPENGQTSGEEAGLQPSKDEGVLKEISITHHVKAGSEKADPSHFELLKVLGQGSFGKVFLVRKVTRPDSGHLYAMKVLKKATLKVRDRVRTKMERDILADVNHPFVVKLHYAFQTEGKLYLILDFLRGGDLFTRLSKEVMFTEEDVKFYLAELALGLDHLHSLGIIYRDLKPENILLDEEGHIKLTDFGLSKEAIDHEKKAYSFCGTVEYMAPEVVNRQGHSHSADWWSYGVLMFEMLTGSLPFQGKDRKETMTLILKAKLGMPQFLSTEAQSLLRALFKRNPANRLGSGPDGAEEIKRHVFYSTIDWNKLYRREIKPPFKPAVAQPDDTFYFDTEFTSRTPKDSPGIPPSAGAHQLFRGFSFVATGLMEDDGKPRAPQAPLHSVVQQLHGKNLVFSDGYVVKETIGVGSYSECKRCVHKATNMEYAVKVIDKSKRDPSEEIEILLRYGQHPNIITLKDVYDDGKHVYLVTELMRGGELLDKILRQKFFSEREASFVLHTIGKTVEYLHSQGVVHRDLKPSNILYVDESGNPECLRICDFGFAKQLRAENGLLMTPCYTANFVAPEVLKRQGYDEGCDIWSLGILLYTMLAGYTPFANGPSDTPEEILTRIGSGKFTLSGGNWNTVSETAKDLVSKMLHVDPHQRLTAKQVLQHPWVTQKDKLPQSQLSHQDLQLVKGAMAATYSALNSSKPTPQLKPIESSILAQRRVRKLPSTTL

[8] = molecular target: Receptor-type tyrosine-protein kinase FLT3 (Homo sapiens) (UniProt P36888); assay: Selectivity interaction (Kinase panel (Invitrogen)) EUB0000639a FLT3; details: at 200 nM
Chain of Receptor-type tyrosine-protein kinase FLT3 (Homo sapiens) (P36888 whole entry): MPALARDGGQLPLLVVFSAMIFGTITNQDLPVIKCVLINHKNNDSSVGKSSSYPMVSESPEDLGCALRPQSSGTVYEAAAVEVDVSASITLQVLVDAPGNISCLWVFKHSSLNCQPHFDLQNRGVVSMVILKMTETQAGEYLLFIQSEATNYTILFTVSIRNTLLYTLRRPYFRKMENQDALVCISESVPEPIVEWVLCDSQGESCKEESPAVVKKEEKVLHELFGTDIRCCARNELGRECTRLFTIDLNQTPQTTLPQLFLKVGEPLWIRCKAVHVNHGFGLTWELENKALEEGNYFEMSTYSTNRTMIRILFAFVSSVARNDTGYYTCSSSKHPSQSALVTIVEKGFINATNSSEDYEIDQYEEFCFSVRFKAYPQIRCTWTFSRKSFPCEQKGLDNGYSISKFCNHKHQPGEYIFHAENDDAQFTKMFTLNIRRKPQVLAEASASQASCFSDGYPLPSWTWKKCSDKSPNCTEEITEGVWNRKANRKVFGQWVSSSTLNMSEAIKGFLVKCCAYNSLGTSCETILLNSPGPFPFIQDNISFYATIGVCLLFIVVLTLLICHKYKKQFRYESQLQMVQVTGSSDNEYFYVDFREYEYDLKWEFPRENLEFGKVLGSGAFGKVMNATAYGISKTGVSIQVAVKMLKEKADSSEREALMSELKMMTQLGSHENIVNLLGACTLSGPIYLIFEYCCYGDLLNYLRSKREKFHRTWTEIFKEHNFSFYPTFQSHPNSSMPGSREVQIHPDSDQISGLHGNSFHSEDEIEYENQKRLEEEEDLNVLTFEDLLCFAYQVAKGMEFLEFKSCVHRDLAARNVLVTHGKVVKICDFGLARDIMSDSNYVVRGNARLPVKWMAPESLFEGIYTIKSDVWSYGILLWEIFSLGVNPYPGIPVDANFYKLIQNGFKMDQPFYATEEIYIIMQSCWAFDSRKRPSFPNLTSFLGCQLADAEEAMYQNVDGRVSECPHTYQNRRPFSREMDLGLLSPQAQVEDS

[9] = molecular target: T3, Serine/threonine-protein kinase 3 (Homo sapiens) (UniProt Q13188); assay: Selectivity interaction (ActivX KiNativ screen (kinase selectivity in THP-1 cell lysates)) EUB0000639a STK3; format: subcellular; details: lysate, at 1 µM
T3 sequence (whole entry): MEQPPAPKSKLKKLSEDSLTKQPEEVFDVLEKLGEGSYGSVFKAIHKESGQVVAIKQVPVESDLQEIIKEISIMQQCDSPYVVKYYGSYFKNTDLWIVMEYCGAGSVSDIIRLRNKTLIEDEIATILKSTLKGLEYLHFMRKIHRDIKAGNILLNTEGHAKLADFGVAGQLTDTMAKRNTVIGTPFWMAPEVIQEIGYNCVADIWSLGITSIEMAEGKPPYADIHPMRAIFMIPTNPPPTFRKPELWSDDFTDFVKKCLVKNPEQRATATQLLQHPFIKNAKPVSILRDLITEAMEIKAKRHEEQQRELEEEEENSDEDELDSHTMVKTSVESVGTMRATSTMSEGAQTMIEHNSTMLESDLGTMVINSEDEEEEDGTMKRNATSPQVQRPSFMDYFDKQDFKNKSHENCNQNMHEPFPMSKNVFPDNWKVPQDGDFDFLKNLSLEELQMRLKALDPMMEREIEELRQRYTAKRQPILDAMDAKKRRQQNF

[10] = molecular target: Dual specificity tyrosine-phosphorylation-regulated kinase 1A (Homo sapiens, UniProt Q13627); assay: Selectivity interaction (KinomeScan (DiscoverX)) EUB0000655a DYRK1A; details: at 10 µM
[11] = molecular target: Death-associated protein kinase 2 (Homo sapiens) (UniProt Q9UIK4); assay: Selectivity interaction (Ambit KINOMEscan and KiNATiv profiling in Jurkat cells) EUB0000090b DAPK2; format: cell-based; details: at 1 µM
Chain of Death-associated protein kinase 2 (Homo sapiens) (Q9UIK4 whole entry, looked up): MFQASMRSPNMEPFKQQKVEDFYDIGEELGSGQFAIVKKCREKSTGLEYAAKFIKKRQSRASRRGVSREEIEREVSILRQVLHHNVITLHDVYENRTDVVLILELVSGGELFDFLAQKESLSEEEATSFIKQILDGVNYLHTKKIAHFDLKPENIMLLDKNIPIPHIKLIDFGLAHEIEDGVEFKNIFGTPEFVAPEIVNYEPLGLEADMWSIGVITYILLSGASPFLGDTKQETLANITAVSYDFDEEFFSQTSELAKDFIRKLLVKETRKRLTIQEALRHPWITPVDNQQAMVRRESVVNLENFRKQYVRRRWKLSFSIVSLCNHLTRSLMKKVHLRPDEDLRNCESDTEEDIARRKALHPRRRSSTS

Question: `O=C(NOC[C@H](O)CO)c1ccc(F)c(F)c1Nc1ccc(I)cc1F` was tested. Which % of control [1] did it give?
Answer: The % of control was 100%.

Question: For `Cc1cc([C@@H](C)Nc2ccccc2C(=O)O)c2nc(N3CCOCC3)cc(=O)n2c1` [AZD-6482], which % of control [2] is on record?
Answer: The % of control was 96%.

Question: What about the % of control [3] of the same molecule?
Answer: Its % of control is 100%.

Question: With `COc1cc(Nc2nc(C)cc(-c3cnn4nc(OC)ccc34)n2)cc(C(F)(F)F)c1` as the molecule, how does the % of control [4] read?
Answer: The % of control was 100%.

Question: `N#Cc1cccc(-c2c[nH]c3ncnc(N4CCOCC4)c23)c1` was tested. Which % of inhibition [5] did it give?
Answer: The % of inhibition was 49%.

Question: With `O[C@H]1CC[C@H](Nc2ncc3nc(Nc4c(F)cc(F)cc4F)n([C@H]4CCOC4)c3n2)CC1` as the molecule, how does the % of control [6] read?
Answer: The % of control was 5.2%.

Question: What does the source list for `CC[C@@H]1[C@H](F)C(=O)N[C@@H]1COc1nccc2cc(C(N)=O)c(OC)cc12` [ZIMLOVISERTIB]?
Answer: % of inhibition [7]: -38%; % of inhibition [8]: 9.68%; % of inhibition [9]: -8%

Question: With `CN(C)CCOc1ccc(-c2nc(-c3ccncc3)c(-c3ccc4c(c3)CC/C4=N\O)[nH]2)cc1` as the molecule, how does the % of control [10] read?
Answer: The % of control was 94%.

Question: `CN(C)C/C=C/C(=O)Nc1ccc(C(=O)N2CCCC(Nc3ncc(Cl)c(-c4c[nH]c5ccccc45)n3)C2)cc1` (stereo unspecified) was tested. Which % of control [11] did it give?
Answer: Its % of control is 98%.
